From patent publication US8895597B2, “Combination of local temozolomide with local BCNU” (priority 2010, dated 2014)

How the values were obtained:
9L gliosarcoma = assay: Efficacy of local TMZ, local BCNU and XRT, intracranial 9L gliosarcoma (second experiment); type: in vivo, F344 rats; settings: without XRT
From the text: TMZ, provided by the National Institute of Health/National Cancer Institute, (Bethesda, Md.), was incorporated into a polyanhydride CPP:SA 20:80 polymer at concentrations of 50% (w/w) by methods as described by Tamargo, et al., Cancer Res. 53(2):329-333 (1993). BCNU was purchased from the Johns Hopkins Hospital pharmacy (Bristol Meyers; Princeton, N.J.) and polymers were made at concentrations of 3.8% (w/w) in a similar fashion. The polymers were then pressed into discs weighing approximately 10 mg. Blank polymers (100% CPP:SA) were made in an analogous manner. In vitro release kinetics, biodistribution studies, and studies to determine maximally tolerated dose of BCNU and TMZ polymers as described by Brem, et al., Cancer Chemother. Pharmacol. 60(5):643-650 (2007); Tamargo, et al., Cancer Res. 53(2):329-333 (1993); and Grossman, et al., J. Neurosurg. 76(4):640-647 (1992). Polymers were stored at −20° C. until use.
The 9L gliosarcoma was obtained from Dr. M. Barker at the University of California-San Francisco Brain Tumor Research Center (San Francisco, Calif.). […]
To determine the efficacy of the combination of locally delivered TMZ with locally delivered BCNU and XRT, tumor-bearing rats were randomized into groups of sixteen for treatment on post-operative Day 5. […] Any animals appearing moribund were sacrificed and date of death recorded. […]

F98 glioma = assay: Efficacy of local TMZ, local BCNU and XRT, intracranial F98 glioma (resistant to alkylating agents); type: in vivo, F344 rats; settings: without XRT

Cn1nnc2c(C(N)=O)ncn2c1=O [50 mg/kg oral TMZ, temozolomide]
Long-term survivors (%) (9L gliosarcoma; alive at Day 120): 0% | Median survival (days) (9L gliosarcoma; range in brackets): 24 (14-33) days | Long-term survivors (%) (F98 glioma; alive at Day 120): 0% | Median survival (days) (F98 glioma; range in brackets): 15 (13-18) days
